Several values for one entry are separate records, joined by “and”; a condition that tells them apart may be missing. Equal entries are not always repeated. Where two headings read alike, the source gives them in different places.
Experiments:
Format in all cases: cell-based
Pythium Ultimum = assay: Activity against Pythium Ultimum (growth inhibition in PDB, microtiter plate, photometric); details: 48 hrs
Pyrenophora Graminea = assay: Activity against Pyrenophora Graminea (growth inhibition in PDB, microtiter plate, photometric); details: 72 hrs
Fusarium Graminearum = details: 48 hrs
Rhizoctonia Solani = assay: Activity against Rhizoctonia Solani (growth inhibition in PDB, microtiter plate, photometric); details: 48 hrs
Gäumannomyces Graminis = assay: Activity Against Gäumannomyces Graminis (growth inhibition in PDB, microtiter plate, photometric); details: 72 hrs
[1] = 0.0039 ppm (mg active ingredient/liter final medium)
[2] = 0.0078 ppm (mg active ingredient/liter final medium)
[3] = 0.03125 ppm (mg active ingredient/liter final medium)
[4] = 0.0625 ppm (mg active ingredient/liter final medium)
[5] = 0.125 ppm (mg active ingredient/liter final medium)
[6] = 1.0 ppm (mg active ingredient/liter final medium)
[7] = 0.25 ppm (mg active ingredient/liter final medium)
[8] = 0.5 ppm (mg active ingredient/liter final medium)

## Cn1cc(C(=O)Nc2ccccc2C2CC2C2CC2)c(C(F)F)n1 (racemic) [Cpd A]
Pythium Ultimum; [1]
  Observed control in % (% Cobs): 0%
Pythium Ultimum; [2]
  Observed control in % (% Cobs): 0%
Pythium Ultimum; [3]
  Observed control in % (% Cobs): 0%
Pyrenophora Graminea; 0.002 ppm (mg active ingredient/liter final medium)
  Observed control in % (% Cobs): 0%
Pyrenophora Graminea; [1]
  Observed control in % (% Cobs): 1.3% and 3.3%
Pyrenophora Graminea; [2]
  Observed control in % (% Cobs): 0%
Pyrenophora Graminea; 0.0156 ppm (mg active ingredient/liter final medium)
  Observed control in % (% Cobs): 0%
Pyrenophora Graminea; [3]
  Observed control in % (% Cobs): 0% and 5.8%
Pyrenophora Graminea; [4]
  Observed control in % (% Cobs): 4.0%
Pyrenophora Graminea; [5]
  Observed control in % (% Cobs): 0%
Pyrenophora Graminea; [6]
  Observed control in % (% Cobs): 0%
Fusarium Graminearum; [3]
  Observed control in % (% Cobs): 0%
Fusarium Graminearum; [4]
  Observed control in % (% Cobs): 2.0% and 4.2%
Fusarium Graminearum; [5]
  Observed control in % (% Cobs): 3.5%
Fusarium Graminearum; [7]
  Observed control in % (% Cobs): 10.5% and 4.0%
Fusarium Graminearum; [8]
  Observed control in % (% Cobs): 9.3%
Fusarium Graminearum; [6]
  Observed control in % (% Cobs): 6.6% and 5.8%
Rhizoctonia Solani; [4]
  Observed control in % (% Cobs): 0%
Rhizoctonia Solani; [5]
  Observed control in % (% Cobs): 22.8% and 23.0% and 29.3% and 40.2%
Rhizoctonia Solani; [7]
  Observed control in % (% Cobs): 73.2%
Gäumannomyces Graminis; [5]
  Observed control in % (% Cobs): 0%
Gäumannomyces Graminis; [8]
  Observed control in % (% Cobs): 0%
Gäumannomyces Graminis; [6]
  Observed control in % (% Cobs): 19.4%
